# Reference: ChEMBL document CHEMBL1123182, “Synthesis and biological properties of chitin synthetase inhibitors resistant to cellular peptidases” (J Med Chem, 1986)
# Molecular target: Chitin synthase 1 (Candida albicans) (UniProt P23316)
# Assay: Compound was tested for the inhibitory activity against chitin synthetase in the permeabilised cell assay
# Conditions: not given
# Sequence of Chitin synthase 1 (Candida albicans) (P23316 whole entry, looked up): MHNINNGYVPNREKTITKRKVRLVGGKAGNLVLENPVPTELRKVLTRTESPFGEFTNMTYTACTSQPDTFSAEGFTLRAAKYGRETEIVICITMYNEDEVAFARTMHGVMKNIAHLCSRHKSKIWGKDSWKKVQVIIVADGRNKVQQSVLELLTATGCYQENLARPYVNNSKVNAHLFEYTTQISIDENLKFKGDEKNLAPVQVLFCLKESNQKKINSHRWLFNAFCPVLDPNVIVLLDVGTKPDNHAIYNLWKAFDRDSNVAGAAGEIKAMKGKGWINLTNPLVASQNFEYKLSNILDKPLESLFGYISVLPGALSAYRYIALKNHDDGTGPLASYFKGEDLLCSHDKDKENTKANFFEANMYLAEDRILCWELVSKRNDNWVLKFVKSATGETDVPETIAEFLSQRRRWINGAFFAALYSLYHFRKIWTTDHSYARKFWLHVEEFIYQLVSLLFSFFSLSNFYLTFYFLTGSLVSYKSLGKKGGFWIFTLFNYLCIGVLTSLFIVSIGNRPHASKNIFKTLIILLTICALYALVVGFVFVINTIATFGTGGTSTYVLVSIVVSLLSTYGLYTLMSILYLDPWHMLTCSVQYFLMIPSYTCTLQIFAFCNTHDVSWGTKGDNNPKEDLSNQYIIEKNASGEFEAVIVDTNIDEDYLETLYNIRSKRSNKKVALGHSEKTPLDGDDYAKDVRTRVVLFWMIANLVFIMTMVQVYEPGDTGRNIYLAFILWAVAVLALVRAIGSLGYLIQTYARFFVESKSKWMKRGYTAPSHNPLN
row,SMILES,ID50
1,CCCCCCCC(=O)NC(Cc1ccccc1)C(=O)NC(C(=O)NC(C(=O)O)[C@H]1O[C@@H](n2cc(C(=O)O)c(=O)[nH]c2=O)[C@H](O)[C@@H]1O)C(O)C(O)COC(N)=O (some centres not stated),50 µM
2,CCCCC(NC)C(=O)NC(C(=O)O)[C@H]1O[C@@H](n2ccc(=O)[nH]c2=O)[C@H](O)[C@@H]1O (some centres not stated),97.5 µM
3,NOC(Cc1ccccc1)C(=O)NC(C(=O)O)[C@H]1O[C@@H](n2ccc(=O)[nH]c2=O)[C@H](O)[C@@H]1O (some centres not stated),> 100 µM
4,CCCNC(CC(C)C)C(=O)NC(C(=O)O)[C@H]1O[C@@H](n2ccc(=O)[nH]c2=O)[C@H](O)[C@@H]1O (some centres not stated),> 100 µM
5,NC(Cc1ccccc1)C(=O)N/C(=C/c1ccccc1)C(=O)NC(C(=O)O)[C@H]1O[C@@H](n2ccc(=O)[nH]c2=O)[C@H](O)[C@@H]1O (some centres not stated),80 µM
6,CCCCC(N)C(=O)NC(C(N)=O)[C@H]1O[C@@H](n2ccc(=O)[nH]c2=O)[C@H](O)[C@@H]1O (some centres not stated),> 100 µM
7,NC(=O)OCC(O)C(O)C(N)C(=O)NC(C(=O)O)[C@H]1O[C@@H](n2cc(C(=O)O)c(=O)[nH]c2=O)[C@H](O)[C@@H]1O (some centres not stated),1 µM
8,N[C@@H](Cc1c[nH]c2ccccc12)C(=O)NC(C(=O)O)[C@H]1O[C@@H](n2ccc(=O)[nH]c2=O)[C@H](O)[C@@H]1O (some centres not stated),> 100 µM

# System: Candida albicans
# Assay: Millimolar concentration of the lowest concentration that clearly inhibited the cell growth of Candida albicans was determined
# Type: functional
# Conditions: not given
row,SMILES,MIC
1,CCCCCCCC(=O)NC(Cc1ccccc1)C(=O)NC(C(=O)NC(C(=O)O)[C@H]1O[C@@H](n2cc(C(=O)O)c(=O)[nH]c2=O)[C@H](O)[C@@H]1O)C(O)C(O)COC(N)=O (some centres not stated),1000 µM
2,CCCCC(NC)C(=O)NC(C(=O)O)[C@H]1O[C@@H](n2ccc(=O)[nH]c2=O)[C@H](O)[C@@H]1O (some centres not stated),> 1000 µM
3,NOC(Cc1ccccc1)C(=O)NC(C(=O)O)[C@H]1O[C@@H](n2ccc(=O)[nH]c2=O)[C@H](O)[C@@H]1O (some centres not stated),3000 µM
4,CCCNC(CC(C)C)C(=O)NC(C(=O)O)[C@H]1O[C@@H](n2ccc(=O)[nH]c2=O)[C@H](O)[C@@H]1O (some centres not stated),2500 µM
5,NC(Cc1ccccc1)C(=O)N/C(=C/c1ccccc1)C(=O)NC(C(=O)O)[C@H]1O[C@@H](n2ccc(=O)[nH]c2=O)[C@H](O)[C@@H]1O (some centres not stated),> 2000 µM
6,CCCCC(N)C(=O)NC(C(N)=O)[C@H]1O[C@@H](n2ccc(=O)[nH]c2=O)[C@H](O)[C@@H]1O (some centres not stated),> 1000 µM
7,NC(=O)OCC(O)C(O)C(N)C(=O)NC(C(=O)O)[C@H]1O[C@@H](n2cc(C(=O)O)c(=O)[nH]c2=O)[C@H](O)[C@@H]1O (some centres not stated),60 µM
8,N[C@@H](Cc1c[nH]c2ccccc12)C(=O)NC(C(=O)O)[C@H]1O[C@@H](n2ccc(=O)[nH]c2=O)[C@H](O)[C@@H]1O (some centres not stated),> 1000 µM

# System: Candida albicans
# Assay: Concentration at which 50% of the Candida albicans cells were not viable
# Type: functional
# Conditions: not given
row,SMILES,concentration killing 50% of cells
1,CCCCC(NC)C(=O)NC(C(=O)O)[C@H]1O[C@@H](n2ccc(=O)[nH]c2=O)[C@H](O)[C@@H]1O (some centres not stated),>4 mM
2,NOC(Cc1ccccc1)C(=O)NC(C(=O)O)[C@H]1O[C@@H](n2ccc(=O)[nH]c2=O)[C@H](O)[C@@H]1O (some centres not stated),>3 mM
3,CCCCC(N)C(=O)NC(C(N)=O)[C@H]1O[C@@H](n2ccc(=O)[nH]c2=O)[C@H](O)[C@@H]1O (some centres not stated),>4 mM
4,NC(=O)OCC(O)C(O)C(N)C(=O)NC(C(=O)O)[C@H]1O[C@@H](n2cc(C(=O)O)c(=O)[nH]c2=O)[C@H](O)[C@@H]1O (some centres not stated),1 mM
5,N[C@@H](Cc1c[nH]c2ccccc12)C(=O)NC(C(=O)O)[C@H]1O[C@@H](n2ccc(=O)[nH]c2=O)[C@H](O)[C@@H]1O (some centres not stated),>4 mM

# Molecular target: Chitin synthase 1 (Candida albicans) (UniProt P23316)
# Assay: Compound was tested for the inhibitory activity against chitin synthetase in the mixed membrane preparation from Candida albicans
# Type: cell membranes
# Conditions: not given
row,SMILES,ID50
1,CCCCCCCC(=O)NC(Cc1ccccc1)C(=O)NC(C(=O)NC(C(=O)O)[C@H]1O[C@@H](n2cc(C(=O)O)c(=O)[nH]c2=O)[C@H](O)[C@@H]1O)C(O)C(O)COC(N)=O (some centres not stated),47.5 µM
2,CCCCC(NC)C(=O)NC(C(=O)O)[C@H]1O[C@@H](n2ccc(=O)[nH]c2=O)[C@H](O)[C@@H]1O (some centres not stated),120 µM
3,NOC(Cc1ccccc1)C(=O)NC(C(=O)O)[C@H]1O[C@@H](n2ccc(=O)[nH]c2=O)[C@H](O)[C@@H]1O (some centres not stated),100 µM
4,CCCNC(CC(C)C)C(=O)NC(C(=O)O)[C@H]1O[C@@H](n2ccc(=O)[nH]c2=O)[C@H](O)[C@@H]1O (some centres not stated),> 100 µM
5,NC(Cc1ccccc1)C(=O)N/C(=C/c1ccccc1)C(=O)NC(C(=O)O)[C@H]1O[C@@H](n2ccc(=O)[nH]c2=O)[C@H](O)[C@@H]1O (some centres not stated),40 µM
6,CCCCC(N)C(=O)NC(C(N)=O)[C@H]1O[C@@H](n2ccc(=O)[nH]c2=O)[C@H](O)[C@@H]1O (some centres not stated),200 µM
7,N[C@@H](Cc1c[nH]c2ccccc12)C(=O)NC(C(=O)O)[C@H]1O[C@@H](n2ccc(=O)[nH]c2=O)[C@H](O)[C@@H]1O (some centres not stated),> 100 µM

# Molecular target: T1, Chitin synthase 1 (Candida albicans, UniProt P23316)
# Assay: Inhibition constant (KI) for the mmf chitin synthetase assay performed at constant inhibitor and varying substrate concentrations
# Conditions: not given
# T1 sequence (P23316 whole entry): as the sequence (P23316 whole entry, looked up) above
row,SMILES,Ki
1,CCCCC(NC)C(=O)NC(C(=O)O)[C@H]1O[C@@H](n2ccc(=O)[nH]c2=O)[C@H](O)[C@@H]1O (some centres not stated),218 µM
2,NOC(Cc1ccccc1)C(=O)NC(C(=O)O)[C@H]1O[C@@H](n2ccc(=O)[nH]c2=O)[C@H](O)[C@@H]1O (some centres not stated),978 µM
3,CCCCC(N)C(=O)NC(C(N)=O)[C@H]1O[C@@H](n2ccc(=O)[nH]c2=O)[C@H](O)[C@@H]1O (some centres not stated),246 µM
4,NC(=O)OCC(O)C(O)C(N)C(=O)NC(C(=O)O)[C@H]1O[C@@H](n2cc(C(=O)O)c(=O)[nH]c2=O)[C@H](O)[C@@H]1O (some centres not stated),0.59 µM
5,N[C@@H](Cc1c[nH]c2ccccc12)C(=O)NC(C(=O)O)[C@H]1O[C@@H](n2ccc(=O)[nH]c2=O)[C@H](O)[C@@H]1O (some centres not stated),1060 µM

# System: Candida albicans
# Assay: Compound was tested for the inhibitory activity against Candida albicans cell growth
# Type: functional
# Conditions: not given
row,SMILES,Viability
1,CCCCCCCC(=O)NC(Cc1ccccc1)C(=O)NC(C(=O)NC(C(=O)O)[C@H]1O[C@@H](n2cc(C(=O)O)c(=O)[nH]c2=O)[C@H](O)[C@@H]1O)C(O)C(O)COC(N)=O (some centres not stated),>1 mM
2,CCCNC(CC(C)C)C(=O)NC(C(=O)O)[C@H]1O[C@@H](n2ccc(=O)[nH]c2=O)[C@H](O)[C@@H]1O (some centres not stated),>1 mM
3,NC(Cc1ccccc1)C(=O)N/C(=C/c1ccccc1)C(=O)NC(C(=O)O)[C@H]1O[C@@H](n2ccc(=O)[nH]c2=O)[C@H](O)[C@@H]1O (some centres not stated),>2 mM

# System: Candida albicans
# Assay: Millimolar concentration at which some morphological effects in Candida albicans cells (about 5% of cells) was determined
# Type: functional
# Conditions: read-out: MEC
row,SMILES,minimal effective concentration
1,CCCCCCCC(=O)NC(Cc1ccccc1)C(=O)NC(C(=O)NC(C(=O)O)[C@H]1O[C@@H](n2cc(C(=O)O)c(=O)[nH]c2=O)[C@H](O)[C@@H]1O)C(O)C(O)COC(N)=O (some centres not stated),1000 µM
2,CCCCC(NC)C(=O)NC(C(=O)O)[C@H]1O[C@@H](n2ccc(=O)[nH]c2=O)[C@H](O)[C@@H]1O (some centres not stated),20 µM
3,NOC(Cc1ccccc1)C(=O)NC(C(=O)O)[C@H]1O[C@@H](n2ccc(=O)[nH]c2=O)[C@H](O)[C@@H]1O (some centres not stated),> 3000 µM
4,CCCNC(CC(C)C)C(=O)NC(C(=O)O)[C@H]1O[C@@H](n2ccc(=O)[nH]c2=O)[C@H](O)[C@@H]1O (some centres not stated),> 2500 µM
5,NC(Cc1ccccc1)C(=O)N/C(=C/c1ccccc1)C(=O)NC(C(=O)O)[C@H]1O[C@@H](n2ccc(=O)[nH]c2=O)[C@H](O)[C@@H]1O (some centres not stated),> 2000 µM
6,CCCCC(N)C(=O)NC(C(N)=O)[C@H]1O[C@@H](n2ccc(=O)[nH]c2=O)[C@H](O)[C@@H]1O (some centres not stated),> 4000 µM
7,NC(=O)OCC(O)C(O)C(N)C(=O)NC(C(=O)O)[C@H]1O[C@@H](n2cc(C(=O)O)c(=O)[nH]c2=O)[C@H](O)[C@@H]1O (some centres not stated),20 µM
8,N[C@@H](Cc1c[nH]c2ccccc12)C(=O)NC(C(=O)O)[C@H]1O[C@@H](n2ccc(=O)[nH]c2=O)[C@H](O)[C@@H]1O (some centres not stated),4000 µM

# Molecular target: T1, Chitin synthase 1
# Assay: Compound was tested for the inhibitory activity against chitin synthetase
# Conditions: not given
row,SMILES,Ki
1,CCCCCCCC(=O)NC(Cc1ccccc1)C(=O)NC(C(=O)NC(C(=O)O)[C@H]1O[C@@H](n2cc(C(=O)O)c(=O)[nH]c2=O)[C@H](O)[C@@H]1O)C(O)C(O)COC(N)=O (some centres not stated),7.15 µM
2,CCCNC(CC(C)C)C(=O)NC(C(=O)O)[C@H]1O[C@@H](n2ccc(=O)[nH]c2=O)[C@H](O)[C@@H]1O (some centres not stated),145 µM
3,NC(Cc1ccccc1)C(=O)N/C(=C/c1ccccc1)C(=O)NC(C(=O)O)[C@H]1O[C@@H](n2ccc(=O)[nH]c2=O)[C@H](O)[C@@H]1O (some centres not stated),11.3 µM
